# Measurements reported in patent US8569501B2, “Semiconductor materials and methods of preparation and use thereof” (BASF SE, priority 2008, dated 2013).
# Test: Solubility in organic solvents
# Format: physicochemical
# Conditions: in dichlorobenzene at 60° C.
# From the text: All of the mono-bromo mono-cyano perylenes and dimeric perylenes are sufficiently soluble for processing in conventional organic solvents such as chloroform, xylene, dichlorobenzene, and anisole.
row,Solubility,SMILES
1,5500 µg/mL,"CCCCC(CC)CN1C(=O)c2ccc3c4c(-c5ccc(-c6ccc(-c7cc8c9c(ccc%10c%11c(C#N)cc%12c%13c(ccc(c7c9%10)c%13%11)C(=O)N(CC(CC)CCCC)C%12=O)C(=O)N(CC(CC)CCCC)C8=O)s6)s5)cc5c6c(ccc(c7c(C#N)cc(c2c37)C1=O)c64)C(=O)N(CC(CC)CCCC)C5=O (stereo not drawn) [BPDI(2EH)-BT, 5,5′-bis-[N,N′-bis(2-ethylhexyl)-1-cyanoperylene-3,4:9,10-bis(dicarboxiimide)-7-yl]-2,2′-bithiophene]"
2,7800 µg/mL,"CCCCCCCCN1C(=O)c2ccc3c4c(-c5ccc(-c6ccc(-c7cc8c9c(ccc%10c%11c(C#N)cc%12c%13c(ccc(c7c9%10)c%13%11)C(=O)N(CCCCCCCC)C%12=O)C(=O)N(CCCCCCCC)C8=O)s6)s5)cc5c6c(ccc(c7c(C#N)cc(c2c37)C1=O)c64)C(=O)N(CCCCCCCC)C5=O [BPDI(8)-BT, 5,5′-bis-[N,N′-bisoctyl-1-cyanoperylene-3,4:9,10-bis(dicarboxiimide)-7-yl]-2,2′-bithiophene]"
3,33900 µg/mL,"CCCCC(C)N1C(=O)c2ccc3c4c(-c5ccc(-c6ccc(-c7cc8c9c(ccc%10c%11c(C#N)cc%12c%13c(ccc(c7c9%10)c%13%11)C(=O)N(C(C)CCCC)C%12=O)C(=O)N(C(C)CCCC)C8=O)s6)s5)cc5c6c(ccc(c7c(C#N)cc(c2c37)C1=O)c64)C(=O)N(C(C)CCCC)C5=O (stereo not drawn) [BPDI(1MP)-BT, 5,5′-bis-[N,N′-bis(1-methylpentyl)-1-cyanoperylene-3,4:9,10-bis(dicarboxiimide)-7-yl]-2,2′-bithiophene]"
